In article PMC8309005, “Novel Non-Congeneric Derivatives of the Choline Kinase Alpha Inhibitor ICL-CCIC-0019” (Pharmaceutics, 2021):

How the values were obtained:
[1] = Human microsomal metabolic stability assay; format: in vitro ADME; conditions: for Predicted in vivo clearance: scaled from microsomal clearance (liver weight, microsomes per liver, liver blood flow); for Predicted in vivo clearance / PCT_LBF % (percentage of compound removed compared to liver blood flow) / microsomal CLint / half-life: human; for microsomal CLint / half-life: human liver microsome S9, human liver microsome S9; for microsomal CLint: read-out: Human Microsomal Metabolic Stability: Clint; for half-life: read-out: Human Microsomal Metabolic Stability: Half-life
Protocol: (§1) The ADME study for ICL-CCIC-0019, CK14, CK145 (5), CK146 (4) and CK147 (8) was performed by Charles River Drug Discovery Services (Essex, UK).
(§2) The predicted in vitro pharmacokinetic characteristics of compounds were evaluated by four ADME assays, namely kinetic solubility assay, metabolic stability assay using human liver microsome S9, permeability and efflux study using the Caco-2 cell line, and matrix stability assay using fasted state simulated gastric fluid (FaSSGF). All tested CHKA inhibitors were highly soluble (>150 μM) in 0.1 M PBS (2% DMSO) (Table 1). […] The in vivo clearance was calculated to predict the actual clearance in humans by scaling the clearance values, which takes into account liver weight, microsomes per liver and liver blood flow. […] In Caco-2 cell permeability assay, drug permeability was investigated and presented as apparent permeability coefficients (Papp) in A to B (A-B, apical to basolateral direction) and B to A (B-A, basolateral to apical direction).

[2] = target: phosphatidylinositol 4-kinase beta (PIK4CB) (Homo sapiens, UniProt Q9UBF8); assay: Lipid kinase screening (ADP-Glo), PIK4CB; format: biochemical
Protocol: (§3) The lipid kinase screening for ICL-CCIC-0019, CK14, CK145 (5), CK146 (4) and CK147 (8) (testing concentration for all compounds: 10 μM) was performed by MRC PPU International Centre for Kinase Profiling (Dundee, UK). The lipid kinase screening panel includes 15 human recombinant lipid kinases and the tests used Promega ADP Glo^TM High Throughput Assay kit (Promega, Southampton, UK). For each assay, reference compounds were used as quality control. Finally, mean percentage activity inhibited by compounds and standard deviation for all the repeats were calculated.

[3] = Matrix stability assay in fasted state simulated gastric fluid (FaSSGF); format: in vitro ADME; conditions: for Matrix Stability: Remaining %: FaSSGF; for half-life: fasted state simulated gastric fluid (FaSSGF), fasted state simulated gastric fluid, pH 1.6, read-out: FaSSGF stability Half-life (converted)
Protocol: as §1, §2

CHK b (CHKB) = CHK b (CHKB) (Homo sapiens, UniProt Q9Y259); assay: Lipid kinase screening (ADP-Glo), CHKB; format: biochemical
Chain of CHK b (CHKB) (Q9Y259 whole entry): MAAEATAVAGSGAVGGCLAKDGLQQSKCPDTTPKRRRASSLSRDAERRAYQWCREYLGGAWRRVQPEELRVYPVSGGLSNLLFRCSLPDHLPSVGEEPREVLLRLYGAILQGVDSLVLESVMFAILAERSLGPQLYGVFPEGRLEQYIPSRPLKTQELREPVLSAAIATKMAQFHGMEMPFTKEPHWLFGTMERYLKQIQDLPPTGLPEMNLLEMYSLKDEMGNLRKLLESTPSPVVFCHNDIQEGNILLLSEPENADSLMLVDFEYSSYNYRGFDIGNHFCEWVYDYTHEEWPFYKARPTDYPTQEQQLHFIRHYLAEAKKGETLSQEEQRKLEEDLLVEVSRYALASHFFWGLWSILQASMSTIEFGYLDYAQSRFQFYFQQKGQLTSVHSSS
Protocol: as §3

PI3K a = PI3K a (Homo sapiens, UniProt P42336); assay: Lipid kinase screening (ADP-Glo), PI3K a; format: biochemical
Chain of PI3K a (P42336 whole entry): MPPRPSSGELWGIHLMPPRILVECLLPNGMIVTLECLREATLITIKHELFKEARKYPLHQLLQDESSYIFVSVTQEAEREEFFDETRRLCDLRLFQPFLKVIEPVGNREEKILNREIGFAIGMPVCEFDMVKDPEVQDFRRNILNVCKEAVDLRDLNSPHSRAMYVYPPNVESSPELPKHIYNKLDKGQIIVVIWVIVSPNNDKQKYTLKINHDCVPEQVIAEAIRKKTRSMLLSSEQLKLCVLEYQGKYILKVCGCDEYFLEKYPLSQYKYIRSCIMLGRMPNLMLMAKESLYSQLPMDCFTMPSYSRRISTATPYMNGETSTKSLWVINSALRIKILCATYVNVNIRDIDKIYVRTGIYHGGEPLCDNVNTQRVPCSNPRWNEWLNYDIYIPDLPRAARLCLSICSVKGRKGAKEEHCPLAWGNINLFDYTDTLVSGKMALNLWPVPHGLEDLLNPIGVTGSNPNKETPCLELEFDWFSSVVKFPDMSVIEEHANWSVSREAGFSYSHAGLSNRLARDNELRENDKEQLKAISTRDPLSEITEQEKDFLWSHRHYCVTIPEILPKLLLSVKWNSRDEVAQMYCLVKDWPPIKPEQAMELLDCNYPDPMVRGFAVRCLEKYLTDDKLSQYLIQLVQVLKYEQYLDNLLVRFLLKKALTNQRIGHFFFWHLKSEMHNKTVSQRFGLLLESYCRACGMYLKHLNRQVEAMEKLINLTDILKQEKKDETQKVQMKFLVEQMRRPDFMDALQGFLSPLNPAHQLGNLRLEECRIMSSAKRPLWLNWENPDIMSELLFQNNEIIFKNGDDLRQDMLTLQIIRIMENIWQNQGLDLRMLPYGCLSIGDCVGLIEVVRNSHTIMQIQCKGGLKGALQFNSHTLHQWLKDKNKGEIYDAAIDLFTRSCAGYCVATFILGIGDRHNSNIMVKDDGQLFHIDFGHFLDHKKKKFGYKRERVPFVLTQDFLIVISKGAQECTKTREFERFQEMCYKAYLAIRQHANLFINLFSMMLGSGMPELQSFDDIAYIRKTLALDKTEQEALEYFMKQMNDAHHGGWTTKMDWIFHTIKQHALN
Chain of PI3K a (P27986 whole entry partner): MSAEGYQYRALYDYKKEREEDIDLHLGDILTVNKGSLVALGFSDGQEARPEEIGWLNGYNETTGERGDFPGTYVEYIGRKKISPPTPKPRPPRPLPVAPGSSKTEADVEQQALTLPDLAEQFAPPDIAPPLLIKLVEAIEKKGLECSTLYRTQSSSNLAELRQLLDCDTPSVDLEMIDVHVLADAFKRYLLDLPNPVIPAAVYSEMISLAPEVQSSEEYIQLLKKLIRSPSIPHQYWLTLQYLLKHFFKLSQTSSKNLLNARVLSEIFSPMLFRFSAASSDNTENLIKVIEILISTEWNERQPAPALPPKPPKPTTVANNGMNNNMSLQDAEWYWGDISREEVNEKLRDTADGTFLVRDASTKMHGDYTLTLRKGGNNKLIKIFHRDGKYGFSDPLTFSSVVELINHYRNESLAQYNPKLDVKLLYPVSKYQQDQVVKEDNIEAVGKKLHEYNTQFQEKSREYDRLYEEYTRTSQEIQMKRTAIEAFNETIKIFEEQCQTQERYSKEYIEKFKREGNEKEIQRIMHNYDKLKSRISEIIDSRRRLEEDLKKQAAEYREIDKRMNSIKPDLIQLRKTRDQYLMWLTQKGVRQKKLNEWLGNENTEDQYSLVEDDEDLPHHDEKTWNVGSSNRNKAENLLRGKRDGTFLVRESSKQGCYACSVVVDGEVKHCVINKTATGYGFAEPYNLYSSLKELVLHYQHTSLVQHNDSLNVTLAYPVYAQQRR
Protocol: as §3

PI3K b = PI3K b (Homo sapiens, UniProt P42338); assay: Lipid kinase screening (ADP-Glo), PI3K b; format: biochemical
Chain of PI3K b (P42338 whole entry): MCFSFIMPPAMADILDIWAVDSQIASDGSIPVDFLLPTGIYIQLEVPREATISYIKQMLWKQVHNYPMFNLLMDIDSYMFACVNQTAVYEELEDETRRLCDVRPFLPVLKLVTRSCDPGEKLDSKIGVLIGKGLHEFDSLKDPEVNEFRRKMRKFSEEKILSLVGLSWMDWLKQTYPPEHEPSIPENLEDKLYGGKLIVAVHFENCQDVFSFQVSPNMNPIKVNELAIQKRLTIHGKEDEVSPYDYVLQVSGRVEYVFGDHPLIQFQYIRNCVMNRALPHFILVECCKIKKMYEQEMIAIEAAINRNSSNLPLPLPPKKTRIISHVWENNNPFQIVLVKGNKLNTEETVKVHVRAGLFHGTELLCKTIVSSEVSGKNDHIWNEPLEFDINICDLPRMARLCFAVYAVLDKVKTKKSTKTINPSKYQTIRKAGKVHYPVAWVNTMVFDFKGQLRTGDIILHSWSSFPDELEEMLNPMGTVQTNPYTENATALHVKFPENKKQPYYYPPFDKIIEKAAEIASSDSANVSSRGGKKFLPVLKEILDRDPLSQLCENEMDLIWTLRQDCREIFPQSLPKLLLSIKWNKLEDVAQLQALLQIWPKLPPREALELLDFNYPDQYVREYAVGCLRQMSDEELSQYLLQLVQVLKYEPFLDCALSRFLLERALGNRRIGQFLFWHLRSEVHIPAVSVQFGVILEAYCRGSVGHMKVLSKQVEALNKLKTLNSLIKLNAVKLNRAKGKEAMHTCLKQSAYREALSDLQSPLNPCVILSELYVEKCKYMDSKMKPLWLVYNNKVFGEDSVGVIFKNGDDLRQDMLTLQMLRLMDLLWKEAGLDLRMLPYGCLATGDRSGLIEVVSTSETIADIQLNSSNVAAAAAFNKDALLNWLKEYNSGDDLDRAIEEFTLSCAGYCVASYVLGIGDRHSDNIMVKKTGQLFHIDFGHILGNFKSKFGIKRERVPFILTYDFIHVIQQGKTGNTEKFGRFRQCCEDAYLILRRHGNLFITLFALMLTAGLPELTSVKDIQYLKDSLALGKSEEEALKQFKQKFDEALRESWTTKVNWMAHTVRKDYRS
Chain of PI3K b (P27986 whole entry partner): as the sequence (P27986 whole entry partner) above
Protocol: as §3

DGK z = DGK z (Homo sapiens, UniProt Q13574); assay: Lipid kinase screening (ADP-Glo), DGK z; format: biochemical
Protocol: as §3

A549 cells = assay: Anti-proliferative SRB assay, A549; format: cell-based; conditions: Homo sapiens, 72 h, Table S2, ± SD
Protocol: (§4) Half-maximal growth inhibitory concentrations (GI50) were determined using sulforhodamine B (SRB) assay as described elsewhere. In brief, cells were seeded in 96-wells at respective cell densities determined by their cell growth curves. After 24 h, the cells were treated in six replicates with medium or different concentrations of CHKA inhibitors in medium and incubated for another 72 h. On completion of incubation, the cells were fixed with 10% trichloroacetic acid (TCA) and stained with 0.4% SRB in 1% acetic acid. The stained protein was solubilized with 10 mM Tris base and optical density values were measured at 540 nm using a Multiskan® EX Micro plate photometer (Thermo Scientific, Loughborough, UK). Growth inhibition curves were plotted as percentage of the control groups and GI50 data were determined by least squares fitting method using GraphPad Prism 7.0. All the chemicals used in this experiment were obtained from Sigma-Aldrich (Gillingham, UK).

R1-D567 cell line = assay: Anti-proliferative SRB assay, R1-D567; format: cell-based; conditions: Homo sapiens; R1-D567, PSMA −; Table S3, ± SD
Protocol: as §4

PI4K2a = PI4K2a (Homo sapiens, UniProt Q9BTU6); assay: Lipid kinase screening (ADP-Glo), PI4K2a; format: biochemical
Chain of PI4K2a (Q9BTU6 whole entry): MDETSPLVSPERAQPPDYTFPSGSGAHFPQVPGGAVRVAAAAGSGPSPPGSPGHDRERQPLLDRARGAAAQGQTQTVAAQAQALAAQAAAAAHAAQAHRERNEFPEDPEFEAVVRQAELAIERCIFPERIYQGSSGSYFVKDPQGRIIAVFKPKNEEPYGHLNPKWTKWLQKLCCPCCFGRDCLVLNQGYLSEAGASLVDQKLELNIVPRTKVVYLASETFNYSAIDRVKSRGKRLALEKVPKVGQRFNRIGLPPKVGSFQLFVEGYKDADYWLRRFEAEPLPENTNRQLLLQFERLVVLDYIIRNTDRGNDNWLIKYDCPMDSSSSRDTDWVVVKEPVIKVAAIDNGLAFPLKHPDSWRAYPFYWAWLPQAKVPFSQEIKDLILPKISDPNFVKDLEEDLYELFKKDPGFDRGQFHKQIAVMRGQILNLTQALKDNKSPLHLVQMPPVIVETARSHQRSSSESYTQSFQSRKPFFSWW
Protocol: as §3

LNCap cell line = assay: Anti-proliferative SRB assay, LNCap; format: cell-based; conditions: Homo sapiens, PSMA +, Table S3, ± SD
Protocol: as §4

PI3Ka E545K + p85 = PI3Ka E545K + p85 (Homo sapiens, UniProt P42336, E545K); assay: Lipid kinase screening (ADP-Glo), PI3Ka E545K + p85; format: biochemical
Chain of PI3Ka E545K + p85 (P42336 whole entry E545K): as the sequence (P42336 whole entry) above, with E545K counted along it
Chain of PI3Ka E545K + p85 (P27986 whole entry partner): as the sequence (P27986 whole entry partner) above
Protocol: as §3

PC3 cell line = assay: Anti-proliferative SRB assay, PC3; format: cell-based; conditions: Homo sapiens, PC-3; PC3, PSMA −; Table S3, ± SD
Protocol: as §4

PNT1A cell line = assay: Anti-proliferative SRB assay, PNT1A; format: cell-based; conditions: Homo sapiens, PSMA −, Table S3, ± SD
Protocol: as §4

C4-2B cell line = assay: Anti-proliferative SRB assay, C4-2B; format: cell-based; conditions: Homo sapiens, PSMA +, Table S3, ± SD
Protocol: as §4

SPHK2 = target: T1, SPHK2 (Homo sapiens, UniProt Q9NRA0); assay: Lipid kinase screening (ADP-Glo), SPHK2; format: biochemical
T1 sequence (Q9NRA0 1-654): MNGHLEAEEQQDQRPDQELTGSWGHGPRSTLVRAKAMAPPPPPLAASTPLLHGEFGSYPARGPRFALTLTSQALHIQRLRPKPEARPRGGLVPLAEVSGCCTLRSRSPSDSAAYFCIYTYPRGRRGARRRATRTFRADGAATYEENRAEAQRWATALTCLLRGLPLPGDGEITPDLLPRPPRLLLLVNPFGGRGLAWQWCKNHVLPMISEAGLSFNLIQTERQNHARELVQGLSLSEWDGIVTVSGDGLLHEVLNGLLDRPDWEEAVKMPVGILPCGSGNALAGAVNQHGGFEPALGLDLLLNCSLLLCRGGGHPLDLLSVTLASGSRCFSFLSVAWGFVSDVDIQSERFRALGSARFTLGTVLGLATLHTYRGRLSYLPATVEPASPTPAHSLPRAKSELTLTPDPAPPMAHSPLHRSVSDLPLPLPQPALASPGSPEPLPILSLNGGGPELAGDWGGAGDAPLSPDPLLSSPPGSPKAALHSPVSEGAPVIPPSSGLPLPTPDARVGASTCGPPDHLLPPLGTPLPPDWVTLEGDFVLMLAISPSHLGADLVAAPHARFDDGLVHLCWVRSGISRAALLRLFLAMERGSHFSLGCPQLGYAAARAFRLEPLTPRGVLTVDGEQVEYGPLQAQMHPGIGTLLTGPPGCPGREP
Protocol: as §3

R1AD1 cell line = assay: Anti-proliferative SRB assay, R1AD1; format: cell-based; conditions: Homo sapiens; R1AD1, PSMA −; Table S3, ± SD
Protocol: as §4

DGK g = DGK g (Homo sapiens, UniProt P49619); assay: Lipid kinase screening (ADP-Glo), DGK g; format: biochemical
Protocol: as §3

HepG2 cells = assay: Anti-proliferative SRB assay, HepG2; format: cell-based; conditions: Homo sapiens, 72 h, Table S2, ± SD
Protocol: as §4

PI3K g = PI3K g (Homo sapiens, UniProt P48736); assay: Lipid kinase screening (ADP-Glo), PI3K g; format: biochemical
Chain of PI3K g (P48736 whole entry): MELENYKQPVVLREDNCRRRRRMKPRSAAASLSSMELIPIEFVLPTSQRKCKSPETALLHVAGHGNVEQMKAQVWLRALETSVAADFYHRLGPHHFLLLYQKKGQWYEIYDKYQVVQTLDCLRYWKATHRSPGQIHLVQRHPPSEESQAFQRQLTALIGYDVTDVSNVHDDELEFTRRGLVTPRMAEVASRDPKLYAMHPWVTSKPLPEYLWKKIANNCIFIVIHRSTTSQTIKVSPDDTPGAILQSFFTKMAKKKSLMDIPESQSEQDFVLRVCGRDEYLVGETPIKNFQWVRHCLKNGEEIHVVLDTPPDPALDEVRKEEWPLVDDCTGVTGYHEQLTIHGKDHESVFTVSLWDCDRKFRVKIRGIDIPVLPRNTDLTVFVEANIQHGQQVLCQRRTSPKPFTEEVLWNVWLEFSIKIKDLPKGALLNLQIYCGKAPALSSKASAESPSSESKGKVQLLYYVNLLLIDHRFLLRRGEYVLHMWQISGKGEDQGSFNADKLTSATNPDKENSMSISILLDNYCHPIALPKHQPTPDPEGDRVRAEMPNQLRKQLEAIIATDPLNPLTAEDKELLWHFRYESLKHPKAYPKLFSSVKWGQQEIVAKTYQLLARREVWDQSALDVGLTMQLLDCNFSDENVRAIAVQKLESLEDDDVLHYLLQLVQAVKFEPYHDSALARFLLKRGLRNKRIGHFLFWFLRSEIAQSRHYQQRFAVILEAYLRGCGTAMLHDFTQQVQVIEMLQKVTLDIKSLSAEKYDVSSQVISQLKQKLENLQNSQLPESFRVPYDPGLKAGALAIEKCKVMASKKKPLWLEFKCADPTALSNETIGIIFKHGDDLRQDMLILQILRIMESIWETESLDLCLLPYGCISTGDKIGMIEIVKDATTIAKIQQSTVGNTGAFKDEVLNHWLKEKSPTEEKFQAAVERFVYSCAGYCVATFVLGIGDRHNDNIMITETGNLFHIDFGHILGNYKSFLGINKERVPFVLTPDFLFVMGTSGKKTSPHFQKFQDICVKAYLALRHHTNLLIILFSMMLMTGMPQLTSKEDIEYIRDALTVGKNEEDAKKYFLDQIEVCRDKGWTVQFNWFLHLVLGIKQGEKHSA
Protocol: as §3

SMILES	Human Microsomal Metabolic Stability: Remaining % ([1]; human liver microsome S9) [%]	Predicted in vivo clearance [1] [mL/min/kg]	inhibition at 10 µM [2] [%]	Matrix Stability: Remaining % [3] [%]	half-life [3] [min]	inhibition at 10 µM (CHK b (CHKB)) [%]	inhibition at 10 µM (PI3K a) [%]	inhibition at 10 µM (PI3K b) [%]	inhibition at 10 µM (DGK z) [%]	GI50 (A549 cells) [nM]	GI50 (R1-D567 cell line) [nM]	inhibition at 10 µM (PI4K2a) [%]	GI50 (LNCap cell line) [nM]	inhibition at 10 µM (PI3Ka E545K + p85) [%]	GI50 (PC3 cell line) [µM]	GI50 (PNT1A cell line) [nM]	GI50 (C4-2B cell line) [µM]	inhibition at 10 µM (SPHK2) [%]	GI50 (R1AD1 cell line) [µM]	inhibition at 10 µM (DGK g) [%]	further results
CC(=O)NCCCCC(NC(=O)OC(C)(C)C)C(=O)N1CCN(c2cc[n+](CCCCCCCCCCCCCC[n+]3ccc(N(C)C)cc3)cc2)CC1 (stereo not drawn) [CK145]	2	19	51	74	552	-18.1	-1	-15.8	11.6	2470 ± 60	40400 ± 4560	-11.4	39000 ± 8560	-1.8	84.9 ± 7.03	63600 ± 10400	63 ± 12.1	13.2	53.4 ± 2.27	13.2	metabolic stability (in words) ([1]; human liver microsome S9): Rapid decomposition; % Inhibition PIK4CB ([2]; 10 μM): 50.6%; FaSSGF stability (in words) ([3]; low pH (1.6)): Rapid decomposition; GI50 (HepG2 cells): 2250 ± 60 nM; inhibition at 10 µM (PI3K g): 2.9%
CN(C)c1cc[n+](CCCCCCCCCCCCCC[n+]2ccc(N3CCNCC3)cc2)cc1 [CK146]	127	<10	47	92	> 600	-49	-5.4	-45.9	8.6	2070 ± 200	870 ± 30	-13.4	1920 ± 990	-1	4.73 ± 0.81	3000 ± 260	4.22 ± 0.43	10	5.67 ± 2.33	10.7	PCT_LBF % (percentage of compound removed compared to liver blood flow) [1]: <45%; microsomal CLint [1]: < 14 µL/min/mg; half-life [1]: > 100 min; GI50 (HepG2 cells): 210 ± 10 nM; inhibition at 10 µM (PI3K g): 6.7%
CN(C)c1cc[n+](CCCCCCCCCCCC[n+]2ccc(N(C)C)cc2)cc1 [ICL-CCIC-0019]	92	<10	-24.1	117	> 600	-28.6	1	-39.6	7.5	50 ± 5	320	-13.9	300 ± 60	-6.1	0.79 ± 0.03	470 ± 80	1.2 ± 0.31	22.4	0.4 ± 0.01	7.8	PCT_LBF % (percentage of compound removed compared to liver blood flow) [1]: <45%; microsomal CLint [1]: < 14 µL/min/mg; half-life [1]: > 100 min; GI50 (HepG2 cells): 180 ± 10 nM; inhibition at 10 µM (PI3K g): 4.9%
